This note sets out measurements from PubChem BioAssay (NCI).

Assay in all cases: NCI anticancer screen, dose series, 48 h
Assay [1] relates to OVCAR-3 ovarian.
Assay [2] relates to RXF 393 renal.
The subject of assay [3] is CCRF-CEM leukemia.
Assay [4] concerns SW-620 colon.
Assay [5] has as its system IGROV1 ovarian.
Assay [6] concerns EKVX NSCLC.
In assay [7] the test system is HCT-116 colon.
Assay [8] has as its system OVCAR-8 ovarian.
Assay [9] deals with MALME-3M melanoma.
For assay [10], the system named is HOP-92 NSCLC.
Assay [11] deals with SK-MEL-28 melanoma.
For assay [12], the system named is HOP-62 NSCLC.
The subject of assay [13] is NCI-H23 lung.
Assay [14] relates to NCI-H522 lung.

Each structure is given as a SMILES string.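 Cultured in 96-well plates, cells were exposed to test compound for 48 hours across five concentrations. TGI: concentration producing complete growth inhibition.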

With `O=S1(=O)NNC(=NCc2ccc(Cl)c(Cl)c2)c2ccccc21`, the TGI was more than 100 µM in assay [1]; more than 100 µM in assay [2]; 81 µM in assay [3]; more than 100 µM in assay [4]; more than 100 µM in assay [5]; more than 100 µM in [6]. Moreover, the TGI in assay [7], in assay [8], in assay [9] and in assay [10] was more than 100 µM in each case.
Turning to `CC1(C)OCC2(CO1)CSCCCSCC1(COC(C)(C)OC1)CSCCCSC2`, the TGI in assay [1], in assay [3], in [4], in assay [5], in assay [6] and in [11] was more than 100 µM in each case. The TGI in assay [12], in assay [7], in assay [13], in [8], in [14] and in assay [10] was more than 100 µM in each case.
As to `Cc1cccc2[nH]c3cc(O)cc(O)c3c(=O)c12`, the TGI in [1], in assay [2], in assay [3], in assay [4], in assay [5] and in assay [11] was more than 10 µM throughout. The TGI in [12], in [7], in [13], in [8], in assay [14] and in [9] was more than 10 µM throughout. For the same compound, the TGI in [10] was more than 10 µM.
Turning to `C=C(C)C#CC(O)(C(=O)OC1CCN(C)CC1)C(C)C` (stereo not given), the TGI in assay [1], in assay [2], in assay [3], in [4], in assay [5] and in [6] was more than 100 µM throughout. For the same compound, the TGI in [11], in assay [12], in assay [7], in assay [13], in assay [8] and in assay [14] was more than 100 µM throughout. The compound further had a TGI in assay [9] of more than 100 µM.
Consider `O=C(c1ccco1)C1CC(c2ccc3ccccc3c2O)=NN1` (stereo not given), for which the TGI in [1], in assay [2], in [3], in assay [4], in assay [5] and in assay [11] was more than 100 µM in each case. The TGI in [12], in assay [7], in [13], in [8], in [14] and in assay [9] was more than 100 µM in each case. The same compound registered a TGI in assay [10] of more than 100 µM.
Consider `c1cc(-c2csc(-c3ccsc3)c2)cs1`, for which the TGI in assay [1], in assay [2], in [3], in assay [4], in assay [5] and in [6] was more than 100 µM each time. Moreover, the TGI in assay [11], in [12], in [7], in [13], in [8] and in assay [10] was more than 100 µM in each case.
`COc1ccc(-c2cnoc2-c2ccc(OC)c(OC)c2)cc1OC`: the TGI in assay [1] was 7.54 µM; in [3] it was 13.4 µM; in assay [4], more than 37.5 µM; in assay [5], 9.53 µM; in [6] it was 20.7 µM; in assay [11] it was more than 21.9 µM. Besides, the TGI in assay [12] was 20.5 µM; in assay [7] it was 12.6 µM; in [13] it was 3.97 µM; in assay [8], 40.9 µM; in [14], 2.1 µM; in assay [10] it was 21.3 µM.
For `Cc1c(/C=N/NC(=S)Nc2cccc(Cl)c2)c(=O)n(-c2ccccc2)n1C`, the TGI in assay [2] is 29.5 µM; in assay [3], more than 100 µM; in assay [4], more than 100 µM; in [5], 42.4 µM; in assay [6], 33.3 µM; in assay [11], more than 100 µM. In addition, the TGI in assay [12] is 26.9 µM; in [7], more than 100 µM; in assay [13], 82.3 µM; in [8] it was 35.6 µM; in [10], 31.7 µM.
In the case of `CCCCC1Cc2ccccc2-c2n1c1ccccc1[n+]2C` (stereo not given), the TGI in [1], in assay [2], in assay [3], in assay [4], in [5] and in assay [6] was more than 100 µM in each case. Also, the TGI is 91 µM in assay [11]; more than 100 µM in [12]; more than 100 µM in assay [7]; 42.5 µM in assay [13]; more than 100 µM in assay [8]; 27.9 µM in assay [14]. Moreover, the TGI in [10] was more than 100 µM.
Regarding `C=C[C@@H](OCOCC[Si](C)(C)C)[C@@H](CC)OC(CCCOC(=O)C(C)(C)C)OC` (stereo not given in full), the TGI is more than 100 µM in [1]; 92.8 µM in assay [3]; 70.1 µM in assay [4]; more than 100 µM in [5]; 65.4 µM in assay [6]; more than 100 µM in assay [11]. In addition, the TGI in [12] is more than 100 µM; in assay [7], 52.8 µM; in [13] it was more than 100 µM; in [8], more than 100 µM; in [10], more than 100 µM.
For the compound `O=c1cc(CO)n(CCc2c[nH]c3ccccc23)cc1O`, the TGI was 75.1 µM in assay [1]; 69.8 µM in [3]; more than 100 µM in [4]; more than 100 µM in [5]; more than 100 µM in assay [6]; more than 100 µM in assay [12]. Besides, the TGI in [7] is more than 100 µM; in assay [13], more than 100 µM; in assay [8] it was more than 100 µM; in assay [14], 78.7 µM; in [9], 57.5 µM; in assay [10] it was 99.7 µM.
As to `O=C1CSC(/C(=C/c2ccccc2)c2nc3ccccc3[nH]2)=N1`, the TGI in assay [3], in [4], in assay [5], in assay [6], in [11] and in assay [12] was more than 100 µM each time. For the same compound, the TGI in [7] is more than 100 µM; in assay [13], 92.7 µM; in assay [8] it was more than 100 µM; in assay [14] it was more than 100 µM; in assay [9], more than 100 µM; in assay [10], more than 100 µM.
With `COc1ccc(N)c(C(O)CCNC(C)=O)c1` (stereo not given), the TGI in assay [1], in assay [2], in assay [3], in assay [4], in assay [5] and in [6] was more than 100 µM in each case. In addition, the TGI in assay [7], in [13], in assay [8], in assay [14] and in [10] was more than 100 µM in each case.
With `Nc1ccc(-c2ncc3cc(-c4cccc(-c5cc6cnc(-c7ccc(N)cc7)nc6c6ccccc56)c4)c4ccccc4c3n2)cc1`, the TGI in assay [1], in [2], in assay [3], in assay [4], in assay [5] and in assay [6] was more than 100 µM each time. In addition, the TGI in assay [11], in [12], in assay [7], in assay [13], in assay [8] and in [14] was more than 100 µM throughout. For the same compound, the TGI in assay [10] was more than 100 µM.
`CC1C2=C(CC(C)(C)CC2=O)NC2=C1C(=O)CC(C)(C)C2`: the TGI in assay [1], in assay [3], in [4], in assay [5], in assay [6] and in assay [11] was more than 100 µM each time. Further, the TGI in [13], in assay [8] and in [10] was more than 100 µM each time.
For the compound `O=S(=O)(C(=Ic1ccccc1)S(=O)(=O)C(F)(F)C(F)(F)C(F)(F)C(F)(F)F)C(F)(F)C(F)(F)C(F)(F)C(F)(F)F`, the TGI in assay [1] was 29.3 µM; in assay [3] it was 18.1 µM; in [4] it was 20.5 µM; in assay [5] it was 36.9 µM; in assay [6], 37.1 µM; in [11], 29.4 µM. In addition, the TGI in assay [12] came to 30.7 µM; in assay [13], 39.7 µM; in assay [14], 6.09 µM; in assay [9], 26.1 µM; in assay [10] it was 23.1 µM.
As to `COC(=O)C1CC(=O)CCC1c1ccccc1` (stereo not given), the TGI in [1], in assay [3], in assay [4], in assay [5], in assay [6] and in assay [11] was more than 100 µM in each case. For the same compound, the TGI in [12], in assay [7], in assay [13], in assay [8], in [14] and in assay [9] was more than 100 µM each time. In addition, in assay [10], the TGI was more than 100 µM.
On to `C#CCSc1nc(N)c2ncn(C3OC(CO)C(O)C3O)c2n1` (stereo not given), for which the TGI in assay [1], in assay [2], in [3], in [4], in assay [5] and in [6] was more than 100 µM throughout. Further, the TGI in assay [11], in assay [12], in assay [7], in [13], in [8] and in assay [14] was more than 100 µM each time. The TGI in assay [9] was more than 100 µM.
In the case of `O=C1CSC(/C=C/c2ccccc2)N1c1ccc(-c2ccc(-n3c(-c4ccccc4)nc4ccccc4c3=O)cc2)cc1` (stereo not given), the TGI in assay [1] worked out at 84.6 µM; in assay [3] it was 64.5 µM; in assay [4] it was 65.1 µM; in [5], 75.6 µM; in assay [6], 73.1 µM; in assay [11], 53.3 µM. The TGI is 99.2 µM in [12]; more than 100 µM in assay [13]; 92.7 µM in assay [8]; 42.9 µM in assay [14]; 64.4 µM in [9]; 56.2 µM in assay [10].
`CC(C)(C)OC(=O)NC1CC=CCC1NC(=O)OC(C)(C)C` (stereo not given): the TGI in assay [1], in assay [2], in assay [3], in [4], in [5] and in [11] was more than 100 µM in each case. Also, the TGI in [12], in assay [7], in assay [13], in [8], in [14] and in assay [9] was more than 100 µM throughout. In assay [10], the TGI was more than 100 µM.
As for `COC(=O)c1ccc(Oc2nc3ccccc3nc2-c2cccs2)cc1`, the TGI in assay [1], in assay [2], in assay [3], in assay [4], in [5] and in assay [6] was more than 100 µM in each case. The TGI in assay [11] was more than 100 µM; in assay [12], 24.9 µM; in assay [7] it was more than 100 µM; in assay [13], 74.5 µM; in assay [8] it was more than 100 µM; in [14] it was more than 100 µM. Also, the TGI in assay [9] is more than 100 µM.
In the case of `CSc1ccccc1P(c1ccccc1SC)c1ccccc1SC`, the TGI in assay [3], in assay [4], in assay [6], in assay [11], in [12] and in assay [7] was more than 100 µM throughout. In addition, the TGI in assay [13], in assay [8], in [9] and in assay [10] was more than 100 µM in each case.
`CCC(CS(=O)(=O)O)[N+](=O)[O-]` (stereo not given): the TGI in [1], in assay [2], in assay [3], in [4], in assay [5] and in assay [6] was more than 100 µM throughout. The TGI in assay [11], in assay [12], in assay [7], in [13], in assay [8] and in assay [14] was more than 100 µM in each case. Moreover, in assay [9], the TGI was more than 100 µM.
